Laboratory results published in patent US20200316156A1, “NASAL BALM FOR RELIEVING ALLERGIC RHINITIS SYMPTOMS” (priority 2019, published 2020).
Values joined by “and” are separate entries in the source; they are usually repeats but may differ in a detail not shown here. Equal values may be shown once. Where a name gives a salt, the structure may show the parent alone.

System: allergic rhinitis of BALB/c mice
Assay: OVA-induced allergic rhinitis in BALB/c mice, sneeze number
Format: in vivo
Conditions: for Sneeze number, individual mouse: within 15 min after administration, mice No. 1-4, hydrochloride
Protocol: 1. Experimental objective: to study the effect of the nasal balm of the disclosure on the allergic rhinitis of BALB/c mice.
2 mg of OVA powder was weighed, dissolved with physiologic saline solution. The final volume was calibrated accurately to 14 mL. 3.5 mL of the OVA solution was pipetted into a 5 mL Eppendorf tube, followed by the addition of 0.5 mL of uniform aluminum hydroxide gel, and then the OVA solution was dropwise added. The mixture was shaken for 30 min, and then 0.2 mL of the resulting solution was injected to each mouse to induce the sensitization.
2 mg of OVA powder was weighed, dissolved with physiologic saline solution. The final volume was calibrated accurately to 14 mL.
The mice were quarantined, adaptively fed, and divided into four groups: normal group, model group, positive control group and test group. Each group had 4 mice labeled as No. 1, No. 2, No. 3 and No. 4, respectively. The rest two mice were as backup.
The model group, positive control group and test group were administered with OVA solution through abdominal cavity to induce sensitization. Each mouse was administered with 0.2 mL of OVA solution containing 25 μg of OVA and 1 mg of aluminum hydroxide. Normal group as a control was injected with physiological saline solution at a dosage of 0.2 mL per mouse, where the first injection was labeled as D0, and the second injection and the third injection were performed on D7 and D14, respectively.
After induction, the drugs were administrated to initiate sensitization. The test product was smeared on the noses of the mice in normal group 6 times each day. After application of the test product each day, 20 μL of physiological saline solution was dripped into the nasal cavity of the mice in normal group as a control, at a dosage of 10 μL per nostril. The physiological saline solution was smeared on the nose of the mice in model group 6 times each day. 5 μL of Levocabastine was dripped into the nasal cavity of the mice in positive control group 2 times each day, at a dosage of 2.5 μL per nostril. The test product was smeared on the noses of the mice in test group 6 times each day. After administration of the drugs each day, 20 μL of the OVA solution for sensitization was dripped into the nasal cavity of the mice in model group, positive control group and test group, respectively, at a dosage of 10 μL per nostril.
Daily administration was continued for 10 days from D20-D30. On D23, D27 and D30 (that is, the 3rd day, 7th day and 10th day after administration), the number of times mice sneezed in each group within 15 min after administration was counted.
Unpaired two-tailed t-test was used to analyze data for each group.

C[C@@H]1CN([C@H]2CC[C@](C#N)(c3ccc(F)cc3)CC2)CC[C@]1(C(=O)O)c1ccccc1 [Levocabastine, Levocabastine hydrochloride]
Sneeze number compared with the model group (3rd day of administration): decreased significantly
Sneeze number compared with the model group (7th day of administration): no significant difference
Sneeze number compared with the model group (10th day of administration): no significant difference
Sneeze number, individual mouse (D23 (3rd day of administration)): 7 and 15 and 8 and 11
Sneeze number of mice, statistical data (D23, group of 4 mice, model group 22.75 ± 1.50): 10.25 ± 3.59
Sneeze number, individual mouse (D27 (7th day of administration)): 75 and 45 and 44 and 22
Sneeze number of mice, statistical data (D27, group of 4 mice, model group 69.75 ± 17.08): 46.50 ± 21.76
Sneeze number, individual mouse (D30 (10th day of administration)): 124 and 108 and 46 and 110
Sneeze number of mice, statistical data (D30, group of 4 mice, model group 100.25 ± 14.13): 97.00 ± 34.74
